The text below walks through data of ChEMBL document CHEMBL4382216, “Asymmetric synthesis and biological evaluation of imidazole- and oxazole-containing synthetic lipoxin A4 mimetics (sLXms)” (Eur J Med Chem, 2019).

The test system of series [1] is Mus musculus. The experiment in a line: Anti-inflammatory activity in zymosan-induced C57BL/6J mouse peritonitis model assessed as total cell count in peritoneal cavity at 125 ng, ip pretreated for 30 mins followed by zymosan treatment and redosing of test compound at 1 hr post zymosan addition and measured at 24 hrs post zymosan addition by flow cytometry (reference value: 100%). The format is functional.

Series [2] deals with Mus musculus. Briefly: Anti-inflammatory activity in zymosan-induced C57BL/6J mouse peritonitis model assessed as PMN leukocytes level in peritoneal cavity at 125 ng, ip pretreated for 30 mins followed by zymosan treatment and redosing of test compound at 1 hr post zymosan addition and measured at 24 hrs post zymosan addition by flow cytometry (reference value: 100%). Format: functional.

Series [3] has as its system Mus musculus. Briefly: Anti-inflammatory activity in zymosan-induced C57BL/6J mouse peritonitis model assessed as reduction in total cell count in peritoneal cavity at 125 ng, ip pretreated for 30 mins followed by zymosan treatment and redosing of test compound at 1 hr post zymosan addition and measured at 24 hrs post zymosan addition by flow cytometry relative to basal level (reference value: 14). Format: functional.

In series [4] the test system is THP-1. The experiment in a line: Cytotoxicity against human THP1 cells harboring NFkB-Luc assessed as LDH release at 10'10 M after 24 hrs by spectrophotometric method relative to control. Format: cell-based. The note with it: thp-1, 24 h.
Series [5] deals with THP-1. Briefly: Cytotoxicity against human THP1 cells harboring NFkB-Luc assessed as LDH release at 10'12 M after 24 hrs by spectrophotometric method relative to control. The note with it: thp-1, 24 h. Format: cell-based.
Series [6] deals with J774.1. Briefly: Anti-inflammatory activity in mouse J774.1 cells assessed as reduction in LPS-stimulated TNFalpha level at 100 nM preincubated for 1 hr followed by LPS stimulation for 24 hrs by ELISA relative to control. Format: functional. Further details: scale not given: the % may be the effect or the level left.
The species named for a further series is Homo sapiens. Briefly: Activation of Luc-fused NFkB (unknown origin) expressed in non-stimulated human THP1 cells assessed as relative luminescence unit at 10^-10 M after 24 hrs by luciferase reporter gene assay (reference value: 100%). The format is cell-based.
Series [7] concerns J774.1. The experiment in a line: Anti-inflammatory activity in mouse J774.1 cells assessed as reduction in LPS-stimulated TNFalpha level at 10 nM preincubated for 1 hr followed by LPS stimulation for 24 hrs by ELISA relative to control. Format: functional. Further details: scale not given: the % may be the effect or the level left.

In the case of `CCCCC[C@H](O)/C=C/C=C\C=C\C=C\[C@@H](O)[C@@H](O)CCCC(=O)O` [LIPOXIN A4], the maximal response (Emax) in the series with Mus musculus [1] was determined as 35.3%; in the series on Mus musculus [2], 35.9%. Also, in the series on Mus musculus [3], the “fold change (FC)” value was 5.

As for `CCCCC[C@H](O)c1nc(-c2ccccc2)n(-c2ccccc2)c1/C=C/[C@@H](O)[C@@H](O)CCCC(=O)OC`, the “fold change (FC)” value in the series with THP-1 [4] and with THP-1 [5] was 0.6 in each case. The Activity in the series with J774.1 [6] worked out at 41%; in the series filed under Homo sapiens, 1.7%.

`CCCCC[C@@H](O)c1nc(-c2ccccc2)n(-c2ccccc2)c1/C=C/[C@@H](O)[C@@H](O)CCCC(=O)OC`: the “fold change (FC)” value in the series on THP-1 [4] worked out at 0.6; with THP-1 [5] it was 0.5. For the same molecule, the Activity was 30% in the series with J774.1 [7] and 1.5% in the series listed under Homo sapiens.
